Experimental data from patent US5221616A, “Prevention of spontaneous complement activation in mammalian biological fluids” (Quidel Corporation, priority 1988, dated 1993).
Entries after “also recorded” stand apart in the source; their conditions may differ. Values belong to the molecule of their own block, whether it stands above or below them.

What was measured:
C3 [1] = molecular target: T1, C3 (Homo sapiens, UniProt P01024); assay: polyhydroxyl compounds in Buffer B mixed with EDTA-NHP: iC3b and C3d,g/iC3b fragment EIA; assay type: biochemical; settings: 22° C. for 48 hr
T1 construct: 250 μL of freshly drawn EDTA-normal human plasma (EDTA-NHP); from tissue; host or cells: normal human blood plasma (EDTA plasma; in A12 also citrate and heparin plasma)
Experimental: (§1) An extensive series of experiments were conducted to examine the ability of a large variety of polyhydroxyl compounds to prevent the spontaneous activation of C in EDTA-NHP during in vitro storage at 22° C for 48 hr. EDTA-NHP was mixed with an equal volume of Buffer B containing the polyhydroxyl compound to be tested. In these experiments Buffer B consisted of 40 mM EDTA and 30 IU sodium heparin/mL dissolved in deionized water, pH 7.2. The final concentration of polyhydroxyl compound dissolved in Buffer B varied for each compound due to differences in solubility. For each set of experiments, EDTA-NHP was also diluted and mixed with an equal volume of PBS (untreated control). The EDTA-NHP samples mixed with each polyhydroxyl compound dissolved in Buffer B and the corresponding untreated controls were incubated at 22° C. for 48 hr, stored at -70° C. and subsequently assayed for C4d, iC3b, C3d,g/iC3b and Bb complement fragment levels as well as for circulating immune complex levels using the Raji Cell Replacement EIA. […] This conclusion was based upon the iC3b percent protection values determined for each of the polyhydroxyl compounds (treated samples) as listed in FIG. 14.
(§2) The concentrations, expressed as μg analyte/mL, of a number of different activation products of spontaneous complement activation were measured in the course of these experiments. In an effort to normalize the data obtained from the various determinations so that the results from different assays could be directly compared to one another, a percent protection value was calculated for each analyte measured. The precent protection values were calculated by dividing the μg analyte/mL in the non-incubated, time-zero control sample by the μg analyte/mL in the experimental sample, multiplied by 100%. A percent protection value of 70 to 130% for any given analyte measured in an experimental sample was considered to indicate that the invention formulation tested was fully effective at providing protection against the occurrence of spontaneous complement activation. Ideally, the effective composition formulation would provide full protection against the occurrence of spontaneous complement activation in a complement-containing sample for all of the analytes measured. In fact, this was the case with several polyhydroxyl compounds when they were present in sufficiently high concentrations in a preferred embodiment of the invention.
A plasma dilution of 1:50 and a serum dilution of 1:100 were used in the iC3b fragment EIA tests. The immunochemical reaction specificity of MoAb 013III-1.1.6.1 has been published previously in abstract form, W. P. Kolb, et al., Fed. Proc. 44:990 (1985).
A plasma dilution of 1:250 and a serum dilution of 1:500 were used in the C3d,g/iC3b EIA tests. […] 135:2015-2019 (1985); Y. Kanayama, et al., J. Immunol. Meth. 88:33-36 (1986). The immunochemical reaction specificity of the Cytotech MoAb 013III-31.4.3.2.2has been published previously in abstract form, W. P. Kolb, et al., FASEB Journal 2:A1834 (1988).

C3 [2] = molecular target: T1, C3; assay: iC3b fragment EIA: spontaneous C3 activation in EDTA-NHP incubated with increasing concentrations of polyhydroxyl compound in water; assay type: biochemical; settings: 22° C. for 48 hr; for spontaneous iC3b fragment production: increasing final concentrations of compound (galactose up to 2M)
Experimental: FIG. 1. […] 250 μL of freshly drawn EDTA-normal human plasma (EDTA-NHP) was mixed with 0 to 250 μL of 4M β-D-glucose dissolved in deionized water. All reaction mixtures were brought up to a final reaction volume of 500 μL using deionized water as the diluent. Each reaction mixture was mixed thoroughly, incubated at 22° C. for 48 hr and assayed for iC3b fragment levels. A non-incubated control (-70° C.) was prepared by mixing 1 part EDTA-NHP with 1 part 4M β-D-glucose dissolved in deionized water. This control reaction mixture was stored at -70° C. until it was assayed in the iC3b fragment EIA along with the incubated experimental samples.
Several different polyhydroxyl compounds were individually dissolved in deionized water to obtain solutions of each compound at a concentration approaching saturation at 22° C. Freshly drawn EDTA-NHP was mixed with increasing concentrations of the polyhydroxyl compound to be tested keeping the final reaction volumes constant. For example, 250 μL of freshly drawn EDTA-NHP was mixed with 0 to 250 μL of the concentrated polyhydroxyl solution to be tested. All reaction mixtures were brought up to a final reaction volume of 500 μL using deionized water as the diluent. Each reaction mixture was mixed thoroughly and incubated at 22° C. for 48 hr. A non-incubated control was prepared for each experiment by mixing 1 part EDTA-NHP with 1 part of the concentrated polyhydroxyl solution to be tested. This control mixture was held at -70° C. until it was thawed out, along with the other experimental samples, and assayed for the occurrence of spontaneous complement activation. For this initial set of experiments, iC3b fragment levels were quantitated in all test samples using the Cytotech monoclonal antibody based EIA procedure. The first analyte selected to be measured was iC3b since, based on previously published data as outlined above, it was anticipated that the C3 protein would be the most susceptible to spontaneous activation upon storage of EDTA-NHP in vitro.
All of the EIA tests employed in these studies utilized solid-phase monoclonal antibody capture assay kit procedures (Cytotech, Inc., San Diego, Calif.). The procedure was basically the same for each EIA kit. Briefly, in the first step of each EIA assay, 100 μL of standards, controls and diluted test specimens were incubated at 22° C., i.e., room temperature, in duplicate polystyrene microtiter wells precoated with a capture monoclonal antibody which specifically reacted with the complement fragment or complex under investigation. During this first incubation period, complement fragments or complexes were bound to the monoclonal antibody coated microassay wells. A wash cycle removed unbound materials.
In the second step, 50 μL of horseradish peroxidase (HRP)-conjugated purified IgG antibody, which reacted with the captured complement fragment or complex analyte, was added to each well and incubated at 22° C. A wash cycle removed unbound conjugate.
In the third step, 100 μL of the HRP enzyme substrate ABTS (0.034% ABTS and 0.0126% H2 O2 in 100 mM sodium citrate buffer, pH 4.0) was added to each well and incubated at 22° C. The bound HRP-conjugatedantibody reacted with the ABTS substrate producing a green color which was proportional to the amount of specimen analyte bound. The HRP-enzymatic reaction was stopped upon addition of 50 μL 250 mM oxalic acid. The substrate color intensity present in each well was measured at 405 nm using an automated EIA microplate reader and the analyte concentration/mL in the original test specimen was determined for each analyte from the appropriate standard curve.
iC3b EIA: The capture mouse monoclonal antibody used to coat microtiter wells for the iC3b fragment EIA was Cytotech MoAb 013III-1.1.6.1 which reacts with a neoantigenic determinant expressed on the iC3b activation fragment of human C3.

[3] = system: C3, Factor B, or the terminal complement proteins; assay: effect of sodium heparin on storage behavior of other complement proteins; assay type: biochemical, human; settings: sodium heparin in the stabilizing formulation
complement = assay: protection against spontaneous complement activation in complement-containing samples during in vitro storage (summary of fragment EIAs); assay type: biochemical, human; settings: for acceptable range of final concentration at which spontaneous C activation will be prevented: ingredient of the formulation; for final concentration identified as particularly effective: added to a complement-containing sample; for range of final concentrations found to provide protection against spontaneous complement activation: complement-containing samples during in vitro storage
Experimental: A method for screening compounds to determine the complement preventing effectiveness thereof is described in detail in the course of the following experimental description and discussion. The method essentially comprises treating complement-containing samples with various doses of the test compounds, storing the thus-treated sample at conventional storage temperature for a minimum of about 48 hours and determining the extent of complement activation which occurs during the storage period by performing assays on the sample for various complement activation products. The results are compared with determination of the level of the same activation products at the beginning of the storage period, i.e., a non-incubated control sample. A non-treated control, comprising an identical sample diluted with phosphate buffered saline (PBS) in a volume ratio identical to that of the sample and polyhydroxyl solution is similarly assayed.
as §2
A percent protection value range of 70 to 130% was used as a criterion to define that a given invention embodiment was able to provide full protection against spontaneous complement activation for the following reasons: The coefficient of variation for the EIA kits employed in these studies ranged from 10-30% when analyte levels were measured in the very low range of values found in freshly-drawn normal human plasma samples. Therefore, in order to ensure that a given result fell within the variability range of the assays employed, a percent protection value between 70 and 130% was considered to represent a fully protective effect.

C4 [4] = assay: C4d fragment EIA: heparin plasma or heparin whole blood stored on ice or at 22° C.; assay type: biochemical, human
Experimental: The first set of experiments addressed the question of how long can a human complement-containing sample be incubated at various temperatures in vitro before evidence of spontaneous C activation can be measured. In FIG. 16 results are presented in which freshly drawn EDTA-NHP, heparin plasma, heparin whole blood or EDTA whole blood were stored on ice (1° C.) or at 22° C. […] In the case of the whole blood samples, the cells were removed by centrifugation before the plasma supernatants were collected and stored at -70° C. […] The other components of the invention composition are also required in order to obtain full protection against spontaneous C activation. This point will be covered in further detail below.

C4 [5] = assay: polyhydroxyl compounds in Buffer B mixed with EDTA-NHP: C4d fragment EIA; assay type: biochemical, human; settings: 22° C. for 48 hr
Experimental: as §1, §2

[6] = system: coagulation system and fibrin clot formation; settings: whole blood or plasma; cited from earlier work
complement system = settings: plasma or serum; cited from earlier work

T1 sequence (P01024 672-1663 limits assumed): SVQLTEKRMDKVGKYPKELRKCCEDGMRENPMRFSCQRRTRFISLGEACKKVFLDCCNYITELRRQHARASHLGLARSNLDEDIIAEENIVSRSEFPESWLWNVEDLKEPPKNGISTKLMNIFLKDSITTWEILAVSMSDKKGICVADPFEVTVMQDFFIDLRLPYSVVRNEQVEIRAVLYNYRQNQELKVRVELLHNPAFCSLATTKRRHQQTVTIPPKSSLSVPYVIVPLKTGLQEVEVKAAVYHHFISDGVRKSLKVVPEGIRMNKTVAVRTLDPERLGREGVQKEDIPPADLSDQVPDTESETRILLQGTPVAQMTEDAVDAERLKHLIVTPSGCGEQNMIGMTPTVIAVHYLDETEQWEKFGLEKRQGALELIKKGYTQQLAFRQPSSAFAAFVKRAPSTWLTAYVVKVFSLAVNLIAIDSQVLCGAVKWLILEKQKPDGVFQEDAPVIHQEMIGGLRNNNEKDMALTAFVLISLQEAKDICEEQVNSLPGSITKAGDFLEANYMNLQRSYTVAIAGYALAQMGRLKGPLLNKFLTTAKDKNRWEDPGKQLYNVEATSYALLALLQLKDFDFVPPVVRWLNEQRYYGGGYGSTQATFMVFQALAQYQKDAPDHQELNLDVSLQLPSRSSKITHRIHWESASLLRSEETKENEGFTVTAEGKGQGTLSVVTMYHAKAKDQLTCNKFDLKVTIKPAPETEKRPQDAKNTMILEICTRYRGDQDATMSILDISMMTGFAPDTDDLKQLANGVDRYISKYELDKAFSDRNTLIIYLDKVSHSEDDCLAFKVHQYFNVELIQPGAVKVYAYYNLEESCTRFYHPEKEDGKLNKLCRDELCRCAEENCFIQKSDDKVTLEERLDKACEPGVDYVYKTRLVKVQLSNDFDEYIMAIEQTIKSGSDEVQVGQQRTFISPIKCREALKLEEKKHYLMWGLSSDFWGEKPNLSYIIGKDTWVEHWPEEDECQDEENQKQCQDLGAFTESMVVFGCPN
T1 sequence (P01024 23-667 limits assumed): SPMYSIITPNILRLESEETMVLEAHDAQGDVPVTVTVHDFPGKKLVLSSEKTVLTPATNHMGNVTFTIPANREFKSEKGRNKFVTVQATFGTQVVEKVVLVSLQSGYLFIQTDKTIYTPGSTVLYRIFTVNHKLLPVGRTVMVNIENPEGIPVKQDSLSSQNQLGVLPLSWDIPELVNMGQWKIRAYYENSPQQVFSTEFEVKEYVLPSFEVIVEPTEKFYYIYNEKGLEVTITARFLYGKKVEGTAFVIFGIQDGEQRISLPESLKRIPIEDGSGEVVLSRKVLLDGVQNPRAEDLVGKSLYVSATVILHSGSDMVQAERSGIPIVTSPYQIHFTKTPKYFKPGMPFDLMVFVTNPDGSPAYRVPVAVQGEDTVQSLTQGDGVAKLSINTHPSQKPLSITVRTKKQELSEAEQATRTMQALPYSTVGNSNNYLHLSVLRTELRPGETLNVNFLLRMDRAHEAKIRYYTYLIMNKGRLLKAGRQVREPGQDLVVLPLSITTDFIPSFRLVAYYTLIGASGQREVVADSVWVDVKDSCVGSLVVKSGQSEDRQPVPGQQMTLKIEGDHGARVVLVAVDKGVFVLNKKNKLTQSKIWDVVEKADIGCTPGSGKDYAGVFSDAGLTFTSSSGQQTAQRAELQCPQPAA

Molecule: galactose
- prevention of spontaneous activation of C3 (C3 [1]; final concentration 2M): ineffective
- spontaneous iC3b fragment production (C3 [2]): only slight inhibition

Molecule: sodium heparin
- effect on storage behavior of C3, Factor B, or the terminal complement proteins [3]: does not improve the storage behavior
- acceptable range of final concentration at which spontaneous C activation will be prevented (complement): 15-60 IU/mL
- prevention of spontaneous activation of C4 (C4 [4]; heparin alone, 22° C for as long as 24 hr): not sufficient to prevent
- time without clear evidence of spontaneous C4 activation (C4 [4]; plasma or whole blood collected in sodium heparin, 1° C. or 22° C.): ≥ 6 h

Molecule: OC[C@H]1O[C@H](OC[C@H]2O[C@H](O[C@]3(CO)O[C@H](CO)[C@@H](O)[C@@H]3O)[C@H](O)[C@@H](O)[C@@H]2O)[C@H](O)[C@@H](O)[C@H]1O [D-raffinose]
- prevention of spontaneous activation of C4 (C4d fragment production) (C4 [5]; final concentration 1.5M): unable to inhibit
- prevention of spontaneous activation of C3 (C3 [1]; final concentration 1.5M): ineffective; also recorded: unable to inhibit

Molecule: O=CC[C@H](O)[C@H](O)CO [2-deoxy-D-ribose]
- prevention of spontaneous activation of C4 (C4d fragment production) (C4 [5]; final concentration 2M): able to prevent
- prevention of spontaneous activation of C3 (C3 [1]; final concentration 2M): ineffective

Molecule: O=C(O)CN(CCN(CC(=O)O)CC(=O)O)CC(=O)O [EDTA, ethylene diamine tetraacetic acid]
- final concentration that inhibits activation of the coagulation system and fibrin clot formation [6]: ≥ 1 mM
- acceptable range of final concentration at which spontaneous C activation will be prevented (complement): 1 to 40 mM
- final concentration that inhibits activation of the complement system (complement system): ≥ 1 mM

Molecule: OC[C@@H](O)[C@@H](O)[C@H](O)[C@H](O)CO [D-mannitol]
- prevention of spontaneous activation of C4 (C4d fragment production) (C4 [5]; final concentration 1.5M): unable to inhibit
- prevention of spontaneous activation of C3 (C3 [1]; final concentration 1.5M): ineffective; also recorded: unable to inhibit

Molecule: OC[C@H]1O[C@@H](OC[C@H]2OC(O)[C@H](O)[C@@H](O)[C@@H]2O)[C@H](O)[C@@H](O)[C@@H]1O (stereo partly shown) [gentiobiose]
- spontaneous iC3b fragment production (C3 [2]): inhibited with increasing concentrations
- final concentration identified as particularly effective (complement): ≥ 1.5 M
- range of final concentrations found to provide protection against spontaneous complement activation (complement): 1.0 to 4 M

The next lines start with results.

- spontaneous iC3b fragment production (C3 [2]): inhibited with increasing concentrations
Molecule: OC[C@H]1O[C@@](CO)(O[C@H]2O[C@H](CO)[C@@H](O)[C@H](O)[C@H]2O)[C@@H](O)[C@@H]1O [sucrose]
- final concentration identified as particularly effective (complement): ≥ 1.75 M
- range of final concentrations found to provide protection against spontaneous complement activation (complement): 1.2 to 4 M

- prevention of spontaneous activation of C3 (C3 [1]; final concentration 0.5M): ineffective
Molecule: O[C@H]1[C@H](O)[C@@H](O)[C@H](O)[C@@H](O)[C@H]1O [inositol]

- spontaneous iC3b fragment production (C3 [2]): inhibited with increasing concentrations
Molecule: OC[C@H]1O[C@H](OC[C@H]2OC(O)[C@H](O)[C@@H](O)[C@@H]2O)[C@H](O)[C@@H](O)[C@H]1O (stereo partly shown) [melibiose]
- final concentration identified as particularly effective (complement): ≥ 1.5 M
- range of final concentrations found to provide protection against spontaneous complement activation (complement): 0.6 to 4 M

- final concentration that completely prevented spontaneous iC3b fragment production (C3 [2]; compared with -70° C. control): ≥ 1.3 M
- spontaneous iC3b fragment production (C3 [2]): inhibited with increasing concentrations
Molecule: OC[C@H]1O[C@H](O[C@H]2O[C@H](CO)[C@@H](O)[C@H](O)[C@H]2O)[C@H](O)[C@@H](O)[C@@H]1O [trehalose]
- final concentration identified as particularly effective (complement): ≥ 1.3 M
- range of final concentrations found to provide protection against spontaneous complement activation (complement): 0.6 to 3.5 M

- prevention of spontaneous activation of C3 (C3 [1]; final concentration 2M): ineffective
Molecule: N[C@@H]1C(O)O[C@H](CO)[C@@H](O)[C@@H]1O (stereo partly drawn) [D-mannosamine]

- prevention of spontaneous activation of C3 (C3 [1]; final concentration 0.5M): ineffective
Molecule: N[C@H]1C(O)O[C@H](CO)[C@@H](O)[C@@H]1O (stereo partly shown) [glucosamine]
